Reference: patent US20140228325A1, “ALKENE DERIVATIVES AS SPHINGOSINE 1-PHOSPHATE (S1P) RECEPTOR MODULATORS” (Allergan, Inc., priority 2013, published 2014)

Target: T1, human S1P1 receptor (Homo sapiens, UniProt P21453)
T1 construct: expressed in transfected cells; membranes used
Assay: GTP γ35S binding assay for S1P1 activity
Type: biochemical
Details: membranes of cells stably expressing the S1P1 receptor, test concentrations 0.08 to 5,000 nM, 30 min at 25° C.
Description: Compounds were synthesized and tested for S1P1 activity using the GTP γ^35S binding assay. These compounds may be assessed for their ability to activate or block activation of the human S1P1 receptor in cells stably expressing the S1P1 receptor. GTP γ^35S binding was measured in the medium containing (mM) HEPES 25, pH 7.4, MgCl2 10, NaCl 100, dithitothreitol 0.5, digitonin 0.003%, 0.2 nM GTP γ^35S, and 5 μg membrane protein in a volume of 150 μl. Test compounds were included in the concentration range from 0.08 to 5,000 nM unless indicated otherwise. Membranes were incubated with 100 μM 5′-adenylylimmidodiphosphate for 30 min, and subsequently with 10 μM GDP for 10 min on ice. Drug solutions and membrane were mixed, and then reactions were initiated by adding GTP γ^35S and continued for 30 min at 25° C. Reaction mixtures were filtered over Whatman GF/B filters under vacuum, and washed three times with 3 mL of ice-cold buffer (HEPES 25, pH7.4, MgCl2 10 and NaCl 100). Filters were dried and mixed with scintillant, and counted for ^35S activity using a β-counter. Agonist-induced GTP γ^35S binding was obtained by subtracting that in the absence of agonist. Binding data were analyzed using a non-linear regression method. In case of antagonist assay, the reaction mixture contained 10 nM S1P in the presence of test antagonist at concentrations ranging from 0.08 to 5000 nM.
Activity potency: S1P1 receptor from GTP γ^35S: nM, (EC50),

T1 sequence (P21453 whole entry): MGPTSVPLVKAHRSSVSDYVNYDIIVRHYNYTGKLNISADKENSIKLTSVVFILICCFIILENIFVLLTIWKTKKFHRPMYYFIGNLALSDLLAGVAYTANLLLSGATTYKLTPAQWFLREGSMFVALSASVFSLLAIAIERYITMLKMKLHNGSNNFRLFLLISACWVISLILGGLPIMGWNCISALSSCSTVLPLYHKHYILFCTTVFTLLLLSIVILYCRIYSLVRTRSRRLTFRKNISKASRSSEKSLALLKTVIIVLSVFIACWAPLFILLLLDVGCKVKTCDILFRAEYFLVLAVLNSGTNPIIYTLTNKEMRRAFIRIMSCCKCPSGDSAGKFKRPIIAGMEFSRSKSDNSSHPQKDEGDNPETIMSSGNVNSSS

Row | SMILES | EC50
1 | Cc1ccc(/C=C(\CCCOc2ccc(CNCCCP(=O)(O)O)cc2)c2cccc(Cl)c2)cc1C [Compound 1, {3-[(4-{[(4E)-4-(3-Chlorophenyl)-5-(3,4-dimethylphenyl)pent-4-en-1-yl]oxy}benzyl)amino]propyl}phosphonic acid] | 9.65 nM
2 | Cc1ccc(/C=C(\CCCOc2ccc(CNCCC(=O)O)cc2)c2cccc(Cl)c2)cc1C [Compound 2, 3-[(4-{[(4E)-4-(3-Chlorophenyl)-5-(3,4-dimethylphenyl)pent-4-en-1-yl]oxy}benzyl)amino]propanoic acid] | 73.2 nM
3 | Cc1ccc(/C=C(\CCCOc2ccc(CNCCC(=O)O)cc2)c2cc(F)cc(F)c2)cc1C [Compound 3, 3-[(4-{[(4E)-4-(3,5-Difluorophenyl)-5-(3,4-dimethylphenyl)pent-4-en-1-yl]oxy}benzyl)amino]propanoic acid] | 51.9 nM
4 | Cc1ccc(/C=C(\CCCOc2ccc(CNCCCP(=O)(O)O)cc2)c2cc(F)cc(F)c2)cc1C [Compound 4, {3-[(4-{[(4E)-4-(3,5-Difluorophenyl)-5-(3,4-dimethylphenyl)pent-4-en-1-yl]oxy}benzyl)amino]propyl}phosphonic acid] | 7.84 nM
5 | Cc1ccc(/C=C(\CCC[S+]([O-])c2ccc(CNCCC(=O)O)cc2)c2cccc(Cl)c2)cc1C (centres unmarked) [Compound 5, 3-[(4-{[(4E)-4-(3-Chlorophenyl)-5-(3,4-dimethylphenyl)pent-4-en-1-yl]sulfinyl}benzyl)amino]propanoic acid] | 450 nM
6 | Cc1ccc(/C=C(\CCC[S+]([O-])c2ccc(CNCCC(=O)O)cc2)c2cc(F)cc(F)c2)cc1C (centres unmarked) [Compound 7, 3-[(4-{[(4E)-4-(3,5-Difluorophenyl)-5-(3,4-dimethylphenyl)pent-4-en-1-yl]sulfinyl}benzyl)amino]propanoic acid] | 111 nM
7 | Cc1ccc(/C=C(\CCCSc2ccc(CNCCC(=O)O)cc2)c2cc(F)cc(F)c2)cc1C [Compound 8, 3-[(4-{[(4E)-4-(3,5-Difluorophenyl)-5-(3,4-dimethylphenyl)pent-4-en-1-yl]thio}benzyl)amino]propanoic acid] | 10.2 nM
8 | Cc1ccc(/C=C(\CCCCSc2ccc(CNCCC(=O)O)cc2)c2cc(F)cc(F)c2)cc1C [Compound 9, 3-[(4-{[(5E)-5-(3,5-Difluorophenyl)-6-(3,4-dimethylphenyl)hex-5-en-1-yl]thio}benzyl)amino]propanoic acid] | 639 nM
